# Data reported in patent US8685981B2, “Cyclic compound having hetero atom” (Daiichi Sankyo Company, Limited, priority 2009, dated 2014).
# Key:
# [1] = system: ST2 cells, murine bone marrow-derived stromal cells; experiment: Osteoblast differentiation test (alkaline phosphatase activity); format: cell-based; settings: Mus musculus, ST-2, 96 h, at 0.03 μg/mL, four days of culturing, control group (0.1% DMSO) set at 100%, read-out: increase (%) in alkaline phosphatase activity
# Protocol: ST2 cells, murine bone marrow-derived stromal cells, (obtained from RIKEN) were used.
# In this test, α-MEM media (obtained from GIBCO BRL Cat. No. 10370-021) containing 10% (v/v) of inactivated calf serum (obtained from Hyclone Laboratories, Inc.) and 1% (v/v) of Penicillin-Streptomycin Liquid (obtained from GIBCO BRL Cat. No. 15140-122) (hereinbelow, abbreviated as 10%-FBS-αMEM) were used. In this test, all culturing was performed in a CO2 incubator (37° C., 95% humidity, 5% CO2).
# The aforementioned cells were detached with 2 mL of a 0.25% trypsin solution (obtained from GIBCO BRL Cat. No. 15050-065) and dispersed in 10 mL of 10%-FBS-αMEM. Subsequently, the cells were collected by centrifugation (25° C., 800 rpm, five minutes). Then, a cell suspension containing 40000 of the cells/mL of 10%-FBS-αMEM was prepared. The cell suspension was then dispensed into 96-well plates (the product of Falcon), 100 μL per well, at a density of 4000 cells/well, followed by culturing for 24 hours. To the wells except for the below-described well containing a control group, the compound was dispensed at final concentrations of 0.01, 0.03, 0.1, and 0.3 μg/ml. To the well of a control group, DMSO was dispensed at a final concentration of 0.1% (v/v). After four days of culturing, the activity of alkaline phosphatase (ALP) was measured in each group.
# The measurement of ALP activity was performed as follows. That is, the medium in each well of the culture plates was completely removed. Each well was then washed by dispensing 100 μL of Dulbecco's phosphate buffer (obtained from GIBCO BRL Cat. No. 14190-144) and then removing it. A cell lysate solution containing 10 mM MgCl2 and 2% (v/v) TritonX-100 (Sigma) was prepared and dispensed at 50 μL/well, followed by stirring at room temperature for five minutes. An ALP substrate solution containing 50 mM diethanolamine (Wako pure chemical industries, Ltd., Cat. No. 099-03112) and 20 mM p-nitrophenyl phosphate (Wako pure chemical industries, Ltd., Cat. No. 147-02343) was prepared and dispensed at 50 μL/well, and the plates were left to stand at room temperature for 10 minutes. Subsequently, absorbance was measured by a microplate reader (Bio-Rad Laboratories, Inc.). Setting the measurement value of the control group of each plate at 100%, the increase (%) in alkaline phosphatase activity in the test compound-addition group was calculated, which was assessed as the degree of osteoblast differentiation.
# female F344 rats = experiment: Effect on bone density (oophorectomy or sham surgery, femur DXA); format: in vivo; settings: 3 mg/kg, orally once a day, six days a week, six to eight weeks, female F344 rats after oophorectomy or sham surgery
# Protocol: Eight to 12 week old female F344 rats were purchased from Charles River Laboratories and used in the following experiment. Rats were anesthetized with an intraperitoneal administration of 40 mg/kg of Somnopentyl (Kyoritsu Seiyaku Corporation), and then oophorectomy or sham surgery was performed. From the day after surgery, a suspension of the test compound in a 0.5% methyl cellulose solution (Wako pure chemical industries, Ltd. Cat. No. 133-14255) was orally administered once a day, six days a week. Six to eight weeks after administration, the rats were euthanized by removal of whole blood from the lower abdominal aorta under Somnopentyl anesthesia, and the left and right femur was excised.
# After removal of soft tissues, the bone density of the femur thus excised was measured by a DXA apparatus, DCS-600R (Aloka Co., Ltd.). The bone density was assessed in the whole femur as well as in three equal sections of the whole femur, namely the proximal end, the shaft, and the distal end.
SMILES,activity at 0.03 µg/mL [1] [%],bone density of the femur (female F344 rats)
"NC(=O)c1ccc2cncc(N3CCC(OCCO[C@@H]4CCOC4)CC3)c2n1 [Example 3, 8-(4-{2-[(3R)-Tetrahydrofuran-3-yloxy]ethoxy}piperidin-1-yl)-1,6-naphthyridine-2-carboxamide]",≥ 200,significantly increased
"NC(=O)c1ccc2cncc(N3CCC(OCCO[C@H]4CCOC4)CC3)c2n1 [Example 4, 8-(4-{2-[(3S)-Tetrahydrofuran-3-yloxy]ethoxy}piperidin-1-yl)-1,6-naphthyridine-2-carboxamide]",≥ 200,significantly increased
"Cl.NC(=O)c1ccc2cncc(N3CCC(OCCOC4CCOCC4)CC3)c2n1 [Example 7, 8-{4-[2-(Tetrahydro-2H-pyran-4-yloxy)ethoxy]piperidin-1-yl}-1,6-naphthyridine-2-carboxamide hydrochloride]",–,significantly increased
"NC(=O)c1ccc2cncc(N3CCCCC3)c2n1 [Example 12, 8-Piperidin-1-yl-1,6-naphthyridine-2-carboxamide]",≥ 200,significantly increased
"NC(=O)c1ccc2cncc(N3CCN(c4ccccc4)CC3)c2c1 [Example 15, 4-(4-Phenylpiperazin-1-yl)isoquinoline-6-carboxamide]",≥ 200,significantly increased
